# Reference: PubChem BioAssay AID256 (DTP/NCI, 2004)
# Inconclusive results and toxic doses are left out.
# Test system: CD2F1 mice, L1210 leukemia ip, survival T/C
# Experiment: NCI In Vivo Anticancer Drug Screen. Data for tumor model L1210 Leukemia (intraperitoneal) in CD2F1 (CDF1) mice
# Conditions: endpoint: mean survival time, higher = longer survival
# Procedure, shortened: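 Ratio T/C, where T is the treated-group value and C the vehicle-dosed control value, from mice implanted with a transplantable tumor.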
# [1] = dose: 12.5 mg/kg/injection, schedule: Q01DX009 (ip), vehicle: saline with Tween-80
# [2] = dose: 25.0 mg/kg/injection, schedule: Q01DX009 (ip), vehicle: saline with Tween-80
# [3] = dose: 25.0 mg/kg/injection, schedule: Q01DX009 (ip), vehicle: saline
# [4] = dose: 50.0 mg/kg/injection, schedule: Q01DX009 (ip), vehicle: saline with Tween-80
# [5] = dose: 50.0 mg/kg/injection, schedule: Q01DX009 (ip), vehicle: saline
# [6] = dose: 100.0 mg/kg/injection, schedule: Q01DX009 (ip), vehicle: saline with Tween-80
# [7] = dose: 100.0 mg/kg/injection, schedule: Q01DX009 (ip), vehicle: saline
# [8] = dose: 200.0 mg/kg/injection, schedule: Q01DX009 (ip), vehicle: saline with Tween-80
# [9] = dose: 100.0 mg/kg/injection, schedule: Q04DX003 (ip), vehicle: saline with Tween-80
# [10] = dose: 200.0 mg/kg/injection, schedule: Q04DX003 (ip), vehicle: saline with Tween-80
# [11] = dose: 12.5 mg/kg/injection, schedule: Q01DX005 (ip), vehicle: distilled water + Tween-80
# [12] = dose: 25.0 mg/kg/injection, schedule: Q01DX005 (ip), vehicle: distilled water + Tween-80
# [13] = dose: 50.0 mg/kg/injection, schedule: Q01DX005 (ip), vehicle: distilled water + Tween-80
# [14] = dose: 100.0 mg/kg/injection, schedule: Q01DX005 (ip), vehicle: distilled water + Tween-80
# [15] = dose: 200.0 mg/kg/injection, schedule: Q01DX005 (ip), vehicle: distilled water + Tween-80
# [16] = dose: 100.0 mg/kg/injection, schedule: Q01DX001 (ip), vehicle: saline with Tween-80
# [17] = dose: 200.0 mg/kg/injection, schedule: Q01DX001 (ip), vehicle: saline with Tween-80
# [18] = dose: 400.0 mg/kg/injection, schedule: Q01DX001 (ip), vehicle: saline with Tween-80
structure (smiles),measurement,setting,value
Cn1cnc([N+](=O)[O-])c1SCC(=O)O,T/C,[1],95 % of control
same,T/C,"dose: 12.5 mg/kg/injection, schedule: Q01DX009 (ip), vehicle: saline",109 % of control
same,T/C,[2],98 % of control
same,T/C,[3],112 % of control
same,T/C,[4],95 % of control
same,T/C,[5],109 % of control
same,T/C,[6],98 % of control
same,T/C,[7],101 % of control
same,T/C,[8],104 % of control
same,T/C,"dose: 200.0 mg/kg/injection, schedule: Q01DX009 (ip), vehicle: saline",104 % of control
same,T/C,"dose: 400.0 mg/kg/injection, schedule: Q01DX009 (ip), vehicle: saline with Tween-80",98 % of control
same,T/C,"dose: 400.0 mg/kg/injection, schedule: Q01DX009 (ip), vehicle: saline",109 % of control
COc1cc([N+](=O)[O-])ccc1NC(=O)Nc1ccc(Cl)cc1,T/C,[6],89 % of control
same,T/C,[9],91 % of control
same,T/C,[8],87 % of control
same,T/C,"dose: 400.0 mg/kg/injection, schedule: Q04DX003 (ip), vehicle: saline with Tween-80",107 % of control
CCOc1c(C#N)c2c(N)ncnc2n1C1OC(CO)C(O)C1O (stereo not given),T/C,"dose: 12.5 mg/kg/injection, schedule: Q01DX009 (ip), vehicle: distilled water + Tween-80",103 % of control
same,T/C,"dose: 25.0 mg/kg/injection, schedule: Q01DX009 (ip), vehicle: distilled water + Tween-80",112 % of control
same,T/C,"dose: 50.0 mg/kg/injection, schedule: Q01DX009 (ip), vehicle: distilled water + Tween-80",112 % of control
same,T/C,"dose: 100.0 mg/kg/injection, schedule: Q01DX009 (ip), vehicle: distilled water + Tween-80",117 % of control
CN=Cc1ccccc1,T/C,[3],97 % of control
same,T/C,[5],97 % of control
same,T/C,[7],100 % of control
C=CCOC(=O)CCCCCCCCC(=O)OCC=C,T/C,[6],97 % of control
same,T/C,[9],96 % of control
same,T/C,[8],95 % of control
same,T/C,[10],94 % of control
NC(=O)c1[nH]cnc1NN=NCCF,T/C,"dose: 25.0 mg/kg/injection, schedule: Q01DX001 (ip), vehicle: Klucel (hydroxypropylcellulose) (HPC)",320 % of control
Brc1nc(Br)c(Br)[nH]1,T/C,[2],86 % of control
same,T/C,[4],95 % of control
same,T/C,[6],92 % of control
same,T/C,[9],100 % of control
O=C(NN(C(=O)c1ccccc1)c1ccccc1)c1ccccc1,T/C,"dose: 100.0 mg/kg/injection, schedule: Q04DX002 (ip), vehicle: saline with Tween-80",100 % of control
same,T/C,"dose: 200.0 mg/kg/injection, schedule: Q04DX002 (ip), vehicle: saline with Tween-80",107 % of control
same,T/C,"dose: 400.0 mg/kg/injection, schedule: Q04DX002 (ip), vehicle: saline with Tween-80",103 % of control
CC(=O)CC(C)(C)S(=O)(=O)Cc1ccccc1,T/C,"dose: 100.0 mg/kg/injection, schedule: Q01DX001 (ip), vehicle: Klucel (hydroxypropylcellulose) (HPC)",93 % of control
same,T/C,"dose: 200.0 mg/kg/injection, schedule: Q01DX001 (ip), vehicle: Klucel (hydroxypropylcellulose) (HPC)",96 % of control
same,T/C,"dose: 400.0 mg/kg/injection, schedule: Q01DX001 (ip), vehicle: Klucel (hydroxypropylcellulose) (HPC)",96 % of control
Nc1ncnc2nc(C3COCCO3)[nH]c12 (stereo not given),T/C,[11],90 % of control
same,T/C,[12],94 % of control
same,T/C,[13],94 % of control
same,T/C,[14],96 % of control
same,T/C,[15],104 % of control
CC(C)(CO)NC(=O)CC1CCCCC1,T/C,[16],103 % of control
same,T/C,[17],103 % of control
same,T/C,[18],100 % of control
CCOC(=O)NCC[N+](C)(C)C,T/C,"dose: 6.25 mg/kg/injection, schedule: Q04DX003 (ip), vehicle: saline",100 % of control
same,T/C,"dose: 12.5 mg/kg/injection, schedule: Q04DX003 (ip), vehicle: saline",102 % of control
same,T/C,"dose: 25.0 mg/kg/injection, schedule: Q04DX003 (ip), vehicle: saline",105 % of control
COC(=O)Nc1nc2ccccc2[nH]1,T/C,[16],98 % of control
same,T/C,[17],91 % of control
same,T/C,[18],96 % of control
same,T/C,"dose: 500.0 mg/kg/injection, schedule: Q04DX003 (ip), vehicle: saline with Tween-80",119 % of control
same,T/C,"dose: 600.0 mg/kg/injection, schedule: Q04DX003 (ip), vehicle: saline with Tween-80",122 % of control
same,T/C,"dose: 800.0 mg/kg/injection, schedule: Q04DX003 (ip), vehicle: saline with Tween-80",111 % of control
CC1CCC(NC(=O)NCCF)CC1 (stereo not given),T/C,"dose: 75.0 mg/kg/injection, schedule: Q01DX001 (ip), vehicle: other",100 % of control
same,T/C,"dose: 150.0 mg/kg/injection, schedule: Q01DX001 (ip), vehicle: other",115 % of control
CCCCCC(=O)N1CCCC1,T/C,[9],98 % of control
same,T/C,[10],98 % of control
Cc1cc(=O)[nH]cn1,T/C,"dose: 100.0 mg/kg/injection, schedule: Q04DX002 (ip), vehicle: saline",105 % of control
same,T/C,"dose: 200.0 mg/kg/injection, schedule: Q04DX002 (ip), vehicle: saline",105 % of control
same,T/C,"dose: 400.0 mg/kg/injection, schedule: Q04DX002 (ip), vehicle: saline",97 % of control
NC(=O)C1(N2CCCCC2)CCN(CCCC(=O)c2ccc(F)cc2)CC1,T/C,[3],101 % of control
same,T/C,[5],101 % of control
CCN(CC)CCOc1ccc(/C(=C(\Cl)c2ccccc2)c2ccccc2)cc1,T/C,"dose: 3.12 mg/kg/injection, schedule: Q04DX003 (ip), vehicle: saline with Tween-80",100 % of control
same,T/C,"dose: 3.13 mg/kg/injection, schedule: Q01DX009 (ip), vehicle: saline with Tween-80",104 % of control
same,T/C,"dose: 6.25 mg/kg/injection, schedule: Q01DX009 (ip), vehicle: saline with Tween-80",102 % of control
same,T/C,"dose: 6.25 mg/kg/injection, schedule: Q04DX003 (ip), vehicle: saline with Tween-80",94 % of control
same,T/C,[1],105 % of control
same,T/C,"dose: 12.5 mg/kg/injection, schedule: Q04DX003 (ip), vehicle: saline with Tween-80",97 % of control
same,T/C,[2],107 % of control
same,T/C,"dose: 25.0 mg/kg/injection, schedule: Q04DX003 (ip), vehicle: saline with Tween-80",97 % of control
same,T/C,[4],91 % of control
same,T/C,"dose: 50.0 mg/kg/injection, schedule: Q04DX003 (ip), vehicle: saline with Tween-80",100 % of control
same,T/C,[9],105 % of control
CCC(CO)Nc1nc2c(c(=O)n(C)c(=O)n2C)n1C (stereo not given),T/C,[11],101 % of control
same,T/C,[12],100 % of control
same,T/C,[13],101 % of control
same,T/C,[14],94 % of control
same,T/C,[15],101 % of control
